According to patent publication EP4603105A1, “PHARMACEUTICAL COMPOSITION CONTAINING CYCLIC COMPOUND HAVING SELECTIVE KRAS INHIBITORY EFFECT AGAINST HRAS AND NRAS” (CHUGAI SEIYAKU KABUSHIKI KAISHA, priority 2022, dated 2024):

How the values were obtained:
HRAS wild-type protein = HRAS wild-type protein (Homo sapiens, UniProt P01112); assay: Binding to HRAS by surface plasmon resonance (SPR), KD and KD ratio to KRAS; conditions: ratio of KD for HRAS wild-type protein to KD for KRAS
How it was run: (§1)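 SPR, 30°C: Avi-biotin RAS·GDP captured via Biotin CAPture (~100–300 RU); running buffer HBS pH 7.4, 1 mM DTT, 10 mM MgCl2, 0.01% Tween 20, 10 µM GDP, 4% DMSO. Single-cycle kinetics, 100 µL/min, 75 s injections; 1:1 model → KD.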

[1] = molecular target: GDP-bound NRAS wild-type protein (Homo sapiens, UniProt P01111); assay: Binding to NRAS by surface plasmon resonance (SPR), KD and KD ratio to KRAS; conditions: ratio of KD for GDP-bound NRAS wild-type protein to KD for KRAS
How it was run: as §1

[2] = test system: human lung cancer strain NCI-H441; assay: NCI-H441 cell proliferation inhibitory activity (CellTiter-Glo, 4 days); assay type: cell-based; conditions: NCI-H441 cells, 4 days, read-out: NCl-H441 IC50
How it was run: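 Proliferation was scored by […] measured after the reagent was added to cultures kept at 37°C in 5% carbon dioxide.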

[3] = molecular target: GDP-bound KRAS wild-type protein (Homo sapiens, UniProt P01116); assay: Binding to KRAS by surface plasmon resonance (SPR), dissociation constant KD; conditions: Single Cycle Kinetics
How it was run: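 Read-out is KD from 1:1 fitting of single-cycle kinetics sensorgrams, blank-cycle and reference-surface corrected. Proteins were GDP-loaded, biotinylated Avi-fusions freshly captured each cycle at roughly 100–300 RU. Runs were at 30°C in HBS pH 7.4 with MgCl2, GDP and 4% DMSO.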

HRAS wild-type protein, sequence (P01112 whole entry): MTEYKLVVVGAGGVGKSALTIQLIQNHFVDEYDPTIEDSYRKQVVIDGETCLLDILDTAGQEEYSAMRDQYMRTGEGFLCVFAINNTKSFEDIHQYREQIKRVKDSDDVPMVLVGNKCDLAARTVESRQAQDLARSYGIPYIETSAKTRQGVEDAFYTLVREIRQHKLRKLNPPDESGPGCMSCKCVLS
GDP-bound KRAS wild-type protein, sequence (P01116 1-188 isoform P01116-2): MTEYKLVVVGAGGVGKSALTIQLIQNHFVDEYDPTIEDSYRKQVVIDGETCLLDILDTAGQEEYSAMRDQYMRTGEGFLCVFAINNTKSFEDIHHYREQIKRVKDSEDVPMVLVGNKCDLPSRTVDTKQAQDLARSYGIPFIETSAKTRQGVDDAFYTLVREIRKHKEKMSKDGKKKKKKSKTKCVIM
GDP-bound NRAS wild-type protein, sequence (P01111 whole entry): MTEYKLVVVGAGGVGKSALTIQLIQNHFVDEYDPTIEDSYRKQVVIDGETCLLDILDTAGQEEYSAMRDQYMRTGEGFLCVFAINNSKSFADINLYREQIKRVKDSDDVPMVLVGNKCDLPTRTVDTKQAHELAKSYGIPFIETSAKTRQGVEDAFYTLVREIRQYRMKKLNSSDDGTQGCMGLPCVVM

Row | SMILES | HRAS /KRAS (HRAS wild-type protein) | NRAS /KRAS [1] | IC50 [2] | Kd [3]
1 | CCC[C@H]1C(=O)N[C@@H](C2CCCC2)C(=O)N(C)CC(=O)N(C)[C@H]2C/C=C\CCN(C2=O)[C@@H](Cc2ccc(C)cc2)C(=O)N(C)CC(=O)N[C@@H](CCc2ccc(C(F)(F)F)c(OC)c2)C(=O)N2CC3(CC3)C[C@H]2C(=O)N(C)C2(CCC2)C(=O)N(C)[C@@H]([C@@H](C)CC)C(=O)N(C)[C@H](C(=O)N(C)C)CC(=O)N1C [PP3318] | A (a compound having 10 or more and less than 20 is denoted as A) | A (a compound having 10 or more and less than 20 is denoted as A) | 6.5 nM | 0.26 nM
2 | CCC[C@H]1C(=O)N[C@@H](C2CCCC2)C(=O)N(C)CC(=O)N(C)[C@H]2C/C=C\CCN(C2=O)[C@@H](Cc2ccc(C)cc2)C(=O)N(C)CC(=O)N[C@@H](CCc2ccc(C(F)(F)F)c(OC)c2)C(=O)N2CC3(CC3)C[C@H]2C(=O)N(C)C2(CCC2)C(=O)N(C)[C@@H](CC(C)(C)C)C(=O)N(C)[C@H](C(=O)N(C)C)CC(=O)N1C [PP3320] | B (a compound having 3 or more and less than 10 is denoted as B) | B (a compound having 3 or more and less than 10 is denoted as B) | 4.6 nM | 0.037 nM
3 | CCC[C@H]1C(=O)N[C@@H](C2CCCC2)C(=O)N(C)CC(=O)N(C)[C@H]2C/C=C\CCN(C2=O)[C@@H](Cc2ccc(C(F)(F)F)cc2)C(=O)N(C)CC(=O)N[C@@H](CCc2ccc(C(F)(F)F)c(Cl)c2)C(=O)N2CC3(CC3)C[C@H]2C(=O)N(C)C2(CCC2)C(=O)N(C)[C@@H](C(CC)CC)C(=O)N(C)[C@H](C(=O)N(C)C)CC(=O)N1C [PP3321] | A (a compound having 10 or more and less than 20 is denoted as A) | AA (a compound having 20 or more is denoted as AA) | 8 nM | 0.85 nM
4 | CCC[C@H]1C(=O)N[C@@H](C2CCCC2)C(=O)N(C)CC(=O)N(C)[C@H]2C/C=C\CCN(C2=O)[C@@H](Cc2ccc(C)cc2)C(=O)N(C)CC(=O)N[C@@H](CCc2ccc(C(F)(F)F)c(Cl)c2)C(=O)N2CC3(CC3)C[C@H]2C(=O)N(C)C2(CCC2)C(=O)N(C)[C@@H](C2CCCC2)C(=O)N(C)[C@H](C(=O)N(C)C)CC(=O)N1C [PP3322] | B (a compound having 3 or more and less than 10 is denoted as B) | A (a compound having 10 or more and less than 20 is denoted as A) | 7.9 nM | 0.063 nM
5 | CCC[C@H]1C(=O)N[C@@H](C2CCCC2)C(=O)N(C)CC(=O)N(C)[C@H]2C/C=C\CCN(C2=O)[C@@H](Cc2ccc(C(F)(F)F)cc2)C(=O)N(C)CC(=O)N[C@@H](CCc2ccc(C(F)(F)F)c(Cl)c2)C(=O)N2CC3(CC3)C[C@H]2C(=O)N(C)C2(CCC2)C(=O)N(C)[C@@H]([C@@H](C)CC)C(=O)N(C)[C@H](C(=O)N(C)C)CC(=O)N1C [PP3323] | A (a compound having 10 or more and less than 20 is denoted as A) | AA (a compound having 20 or more is denoted as AA) | 9.2 nM | 1.3 nM
6 | CCC[C@H]1C(=O)N[C@@H](C2CCCC2)C(=O)N(C)CC(=O)N(C)[C@H]2C/C=C\CCN(C2=O)[C@@H](Cc2ccc(C)cc2)C(=O)N(C)CC(=O)N[C@@H](CCc2ccc(C(F)(F)F)c(Cl)c2)C(=O)N2CC3(CC3)C[C@H]2C(=O)N(C)C2(CCC2)C(=O)N(C)[C@@H](C(CC)CC)C(=O)N(C)[C@H](C(=O)N(C)C)CC(=O)N1C [PP3324] | B (a compound having 3 or more and less than 10 is denoted as B) | AA (a compound having 20 or more is denoted as AA) | 16.4 nM | 0.23 nM
7 | CCC[C@H]1C(=O)N[C@@H](C2CCCC2)C(=O)N(C)CC(=O)N(C)[C@H]2C/C=C\CCN(C2=O)[C@@H](Cc2ccc(C)cc2)C(=O)N(C)CC(=O)N[C@@H](CCc2ccc(C(F)(F)F)c(Cl)c2)C(=O)N2CC3(CC3)C[C@H]2C(=O)N(C)C2(CCC2)C(=O)N(C)[C@@H]([C@@H](C)CC)C(=O)N(C)[C@H](C(=O)N(C)C)CC(=O)N1C [PP3326] | A (a compound having 10 or more and less than 20 is denoted as A) | A (a compound having 10 or more and less than 20 is denoted as A) | 12.6 nM | 0.22 nM
8 | CCC[C@H]1C(=O)N[C@@H](C2CCCC2)C(=O)N(C)CC(=O)N(C)[C@H]2C/C=C\CCN(C2=O)[C@@H](Cc2ccc(C)cc2)C(=O)N(C)CC(=O)N[C@@H](CCc2ccc(C(F)(F)F)c(Cl)c2)C(=O)N2CC3(CC3)C[C@H]2C(=O)N(C)C2(CCC2)C(=O)N(C)[C@@H](CC(C)(C)C)C(=O)N(C)[C@H](C(=O)N(C)C)CC(=O)N1C [PP3328] | B (a compound having 3 or more and less than 10 is denoted as B) | A (a compound having 10 or more and less than 20 is denoted as A) | 1.7 nM | 0.026 nM
9 | CCC[C@H]1C(=O)N[C@@H]([C@@H](C)CC)C(=O)N(C)CC(=O)N(C)[C@H]2C/C=C\CCN(C2=O)[C@@H](Cc2ccc(C)cc2)C(=O)N(C)CC(=O)N[C@@H](CCc2cc(F)c(C(F)(F)F)c(F)c2)C(=O)N2CC3(CC3)C[C@H]2C(=O)N(C)C2(CCC2)C(=O)N(C)[C@@H](C(CC)CC)C(=O)N(C)[C@H](C(=O)N(C)C)CC(=O)N1C [PP3329] | B (a compound having 3 or more and less than 10 is denoted as B) | A (a compound having 10 or more and less than 20 is denoted as A) | 8.7 nM | 0.23 nM
10 | C=CC[C@H]1C(=O)N(C)[C@H](C(=O)N(C)C)CC(=O)N(C)[C@@H](CCC)C(=O)N[C@@H]([C@@H](C)CC)C(=O)N(C)CC(=O)N(C)[C@H]2C/C=C\CCN(C2=O)[C@@H](Cc2ccc(C(F)(F)F)cc2)C(=O)N(C)CC(=O)N[C@@H](CCc2ccc(C(F)(F)F)c(OC)c2)C(=O)N2C[C@H](OCC)C[C@H]2C(=O)N(C)C2(CCC2)C(=O)N1C [PP3330] | A (a compound having 10 or more and less than 20 is denoted as A) | A (a compound having 10 or more and less than 20 is denoted as A) | 80.4 nM | 1.1 nM
11 | CCC[C@H]1C(=O)N[C@@H]([C@@H](C)CC)C(=O)N(C)CC(=O)N(C)[C@H]2C/C=C\CCN(C2=O)[C@@H](Cc2ccc(C)cc2)C(=O)N(C)CC(=O)N[C@@H](CCc2cc(F)c(C(F)(F)F)c(F)c2)C(=O)N2CC3(CC3)C[C@H]2C(=O)N(C)C2(CCC2)C(=O)N(C)[C@@H]([C@@H](C)CC)C(=O)N(C)[C@H](C(=O)N(C)C)CC(=O)N1C [PP3331] | A (a compound having 10 or more and less than 20 is denoted as A) | A (a compound having 10 or more and less than 20 is denoted as A) | 7 nM | 0.1 nM
12 | C=C(C)C[C@H]1C(=O)N(C)[C@H](C(=O)N(C)C)CC(=O)N(C)[C@@H](CCC)C(=O)N[C@@H]([C@@H](C)CC)C(=O)N(C)CC(=O)N(C)[C@H]2C/C=C\CCN(C2=O)[C@@H](Cc2ccc(C(F)(F)F)cc2)C(=O)N(C)CC(=O)N[C@@H](CCc2ccc(C(F)(F)F)c(OC)c2)C(=O)N2C[C@H](OCC)C[C@H]2C(=O)N(C)C2(CCC2)C(=O)N1C [PP3332] | B (a compound having 3 or more and less than 10 is denoted as B) | A (a compound having 10 or more and less than 20 is denoted as A) | 29.3 nM | 0.86 nM
13 | CCC[C@H]1C(=O)N[C@@H]([C@@H](C)CC)C(=O)N(C)CC(=O)N(C)[C@H]2C/C=C\CCN(C2=O)[C@@H](Cc2ccc(C)cc2)C(=O)N(C)CC(=O)N[C@@H](CCc2cc(F)c(C(F)(F)F)c(F)c2)C(=O)N2CC3(CC3)C[C@H]2C(=O)N(C)C2(CCC2)C(=O)N(C)[C@@H](CC(C)(C)C)C(=O)N(C)[C@H](C(=O)N(C)C)CC(=O)N1C [PP3333] | B (a compound having 3 or more and less than 10 is denoted as B) | B (a compound having 3 or more and less than 10 is denoted as B) | 4.5 nM | 0.019 nM
14 | C=C(C)C[C@H]1C(=O)N(C)[C@H](C(=O)N(C)C)CC(=O)N(C)[C@@H](CCC)C(=O)N[C@@H]([C@@H](C)CC)C(=O)N2CCC[C@H]2C(=O)N(C)[C@H]2C/C=C\CCN(C2=O)[C@@H](Cc2ccc(C(F)(F)F)cc2)C(=O)N(C)CC(=O)N[C@@H](CCc2ccc(C(F)(F)F)c(OC)c2)C(=O)N2C[C@H](OCC)C[C@H]2C(=O)N(C)C2(CCC2)C(=O)N1C [PP3335] | A (a compound having 10 or more and less than 20 is denoted as A) | A (a compound having 10 or more and less than 20 is denoted as A) | 90.6 nM | 2.5 nM
